Reference: patent US20240027453A1, “METHOD FOR DETECTION AND QUANTITATIVE MONITORING OF INFECTIONS WITH HERPESVIRUSES” (The Trustees of Princeton University, priority 2020, published 2024)
Read-outs that look alike come from different tables or passages of the source.

System: HCMV
Assay type: cell-based
Settings: for IRS1 (P09715) protein level / TRS1 (P09695) protein level / UL13 (P16755) protein level / UL36 (P16767) protein level / UL37 (P16778) protein level / UL122 (P19893) protein level / UL123 (P13202) protein level: IE
Procedure: In example herpesvirus PRM assay methods shown herein, cell pellets were lysed in 2% SDS, 100 mM NaCl, 0.5 mM EDTA, 50 mM Tris, pH 8.2, and 50 μg of protein was reduced and alkylated with 25 mM TCEP and 50 mM CAM respectively for 20 min at 70° C. Proteins were then precipitated via methanol chloroform precipitation (Wessel & Flugg, Anal Biochem. 138(1):141-143, 1984), resuspended in 50 mM HEPES, pH 8.2 and digested overnight with trypsin (50:1 protein:enzyme w/w ratio). Digested peptides were desalted by SDB-RPS StageTip as previously described (Lum et al., Cell Syst., 7(6):[…], 2018; Greco et al., Methods Mol Biol 1410:39-63, 2016; Federspiel & Cristea, Methods Mol Biol., 1977:115-143, 2019).
Peptides (1.0 μg on column) were analyzed by LC-MS/MS using a Dionex Ultimate 3000 UHPLC coupled online to an EASYSpray ion source and a Q Exactive HF. Peptides were separated on an EASYSpray C18 column (75 μm×25 cm) heated to 50° C. using a linear gradient of 5% B to 32% B over 60 min at a flow rate of 250 nL/min and were ionized at 1.7 kv. Mobile phase A consisted of 0.1% FA in H2O and mobile phase B consisted of 0.1% FA, 2.9% H2O in ACN.
The PRM method was controlled by a peptide inclusion list with retention time windows of 6 min for selected precursor ions.
The PRM assay was developed and analyzed using the open-source software Skyline (Maclean et al., Bioinformatics 26(7):966-968, 2010). Summed area under the curve of 3-4 transitions per peptide was used for quantitation. Targeted peptides were normalized to host protein loading control peptides. Peptide values for each sample were scaled to the average of each peptide across all runs. The average of multiple peptides was used as the inferred value for the protein measurement when more than one peptide was quantified (Federspiel et al., PLoS Biol. 17(9):e3000437. Doi: 10.1371/journal.pbio.3000437). PRM quantitation data were graphed using the Python Seaborn and Matplotlib libraries.
MRC5 primary human fibroblasts (HFs) (ATCC CCL-171) were used as the model system for HSV-1 and HCMV infections and were cultured in complete growth medium (DMEM supplemented with 10% fetal bovine serum and 1% penicillin-streptomycin antibiotics) at 37° C. and 5% CO2. iSLK.219 cells harboring latent KSHV (a gift from Dr. Britt Glaunsinger, University of California, Berkeley) were grown in complete growth medium supplemented with 500 μg/ml hygromycin (ThermoFisher Scientific, 10687010) at 37° C. and 5% CO2. All cells were used for experiments within a maximum of 10 passages.
Wild type HSV-1 strain 17+ (a gift from Beate Sodeik, Hannover Medical School, Hannover, Germany) was propagated as previously described (Diner et al., 2015). Briefly, PO stocks were generated by electroporating pBAC-HSV-1 into U-2 OS cells. […] In a similar manner, wild type HCMV strain AD169 was produced from BAC electroporation into HFs and working stocks were propagated by infecting HFs at a low level. In both cases, cell-associated virus was released by sonication, combined with supernatant virus, then concentrated by ultracentrifugation (20,000 rpm, 2 hours, 4° C. with SW28 swinging bucket rotor [Beckman Coulter]) over a 10% ficoll (HSV-1) or 20% sorbitol (HCMV) cushion. Virus stock titers were determined by plaque assay for HSV-1 or tissue culture infectious dose (TCID50) for HCMV and infections were performed at a multiplicity of infection (MOI) of 3.
12 hours prior to virus infection or reactivation, cells were treated with either the small molecule drug or DMSO/PBS control at an equivalent volume. […] For infection cycles lasting longer than 24 hours, small molecule drugs were re-added to the cell culture medium every 24 hours. Upon collection, cells were rinsed with PBS, scraped into a microcentrifuge tube, pelleted by centrifugation, and rinsed again with PBS.

Nc1c(S(=O)(=O)c2ccccc2)c2nc3ccccc3nc2n1-c1ccc(F)cc1 [CAY10602]
UL102 (P16827) protein level (timepoint 48, DE): 0.7866 | UL104 (P16735) protein level (timepoint 48, DE): 0.07399 | UL112/UL113 (P17151) protein level (timepoint 48, DE): 0.423 | UL114 (P16769) protein level (timepoint 48, DE): 0.7709 | UL119/UL118 (P16739) protein level (timepoint 48, DE): 0.3402 | UL128 (P16837) protein level (timepoint 48, DE): 0.06729 | US8 (P09730) protein level (timepoint 48, DE): 0.8905 | US9 (P09729) protein level (timepoint 48, DE): 0.6117 | US12 (P09721) protein level (timepoint 48, DE): 0.9446 | US13 (P09720) protein level (timepoint 48, DE): 0.9123 | US14 (P09719) protein level (timepoint 48, DE): 0.1589 | US18 (P69334) protein level (timepoint 48, DE): 0.5367 | US22 (P09722) protein level (timepoint 48, DE): 0.542 | US23 (P09701) protein level (timepoint 48, DE): 0.4283 | US24 (P09700) protein level (timepoint 48, DE): 0.42 | US34 (P09709) protein level (timepoint 48, DE): 0.4118 | gB (P06473) protein level (timepoint 48, DE): 0.09671 | IRS1 (P09715) protein level (timepoint 48): 0.5813 | TRS1 (P09695) protein level (timepoint 48): 0.446 | UL13 (P16755) protein level (timepoint 48): 0.4405 | UL36 (P16767) protein level (timepoint 48): 0.9117 | UL37 (P16778) protein level (timepoint 48): 0.7557 | UL122 (P19893) protein level (timepoint 48): 0.05121 | UL123 (P13202) protein level (timepoint 48): 0.5672 | CVC1 (P16799) protein level (timepoint 48, L): 0.1115 | IR11 (P16809) protein level (timepoint 48, L): 0.3707 | MCP (P16729) protein level (timepoint 48, L): 0.006609 | SCP (Q7M6N6) protein level (timepoint 48, L): 0.004793 | TRM2 (P16792) protein level (timepoint 48, L): 0.05665 | UL22A (P16845) protein level (timepoint 48, L): 0.1015 | UL25 (P16761) protein level (timepoint 48, L): 0.0624 | UL29 (P16764) protein level (timepoint 48, L): 0.7556 | UL30 (P16765) protein level (timepoint 48, L): 0.1538 | UL31 (P16848) protein level (timepoint 48, L): 0.1445 | UL43 (P16781) protein level (timepoint 48, L): 0.04992 | UL52 (P16793) protein level (timepoint 48, L): 0.05111 | UL80 (P16753) protein level (timepoint 48, L): 0.03588 | UL82 (P06726) protein level (timepoint 48, L): 0.1061 | UL88 (P16731) protein level (timepoint 48, L): 0.08754 | UL94 (P16800) protein level (timepoint 48, L): 0.07429 | UL99 (P13200) protein level (timepoint 48, L): 0.05165 | UL103 (P16734) protein level (timepoint 48, L): 0.1567 | UL117 (P16770) protein level (timepoint 48, L): 0.383 | gH (P12824) protein level (timepoint 48, L): 0.06336 | gL (P16832) protein level (timepoint 48, L): 0.05192 | gM (P16733) protein level (timepoint 48, L): 0.02415 | gN (P16795) protein level (timepoint 48, L): 0.1118 | DUT (P16824) protein level (timepoint 48, LL): 0.2582 | IR12 (P16810) protein level (timepoint 48, LL): 0.2908 | TRM3 (P16732) protein level (timepoint 48, LL): 0.01695 | TRX1 (P16783) protein level (timepoint 48, LL): 0.006112 | TRX2 (P16728) protein level (timepoint 48, LL): 0.006041 | UL24 (P16760) protein level (timepoint 48, LL): 0.1155 | UL40 (P16780) protein level (timepoint 48, LL): 0.63 | UL47 (P16784) protein level (timepoint 48, LL): 0.02023 | UL49 (P16786) protein level (timepoint 48, LL): 0.187 | UL69 (P16749) protein level (timepoint 48, LL): 0.1615 | UL70 (P17149) protein level (timepoint 48, LL): 0.3937 | UL83 (P06725) protein level (timepoint 48, LL): 0.02048 | UL132 (P69338) protein level (timepoint 48, LL): 0.09662 | US15 (P09718) protein level (timepoint 48, LL): 0.5168 | CVC2 (P16726) protein level (timepoint 72, DE): 0.03983 | DBP (P17147) protein level (timepoint 72, DE): 0.391 | HELI (P16736) protein level (timepoint 72, DE): 0.5709 | IR01 (P09710) protein level (timepoint 72, DE): 0.2588 | NEC2 (P16791) protein level (timepoint 72, DE): 0.11 | RIR1 (P16782) protein level (timepoint 72, DE): 0.1099 | TRM1 (P16724) protein level (timepoint 72, DE): 0.1317 | UL4 (P17146) protein level (timepoint 72, DE): 0.06765 | UL26 (P16762) protein level (timepoint 72, DE): 0.1023 | UL32 (P08318) protein level (timepoint 72, DE): 0.02678 | UL34 (P16812) protein level (timepoint 72, DE): 0.09048 | UL35 (P16766) protein level (timepoint 72, DE): 0.02871 | UL38 (P16779) protein level (timepoint 72, DE): 0.5839 | UL44 (P16790) protein level (timepoint 72, DE): 0.07887 | UL48 (P16785) protein level (timepoint 72, DE): 0.0801 | UL54 (P08546) protein level (timepoint 72, DE): 0.6639 | UL71 (P16823) protein level (timepoint 72, DE): 0.3054 | UL78 (P16751) protein level (timepoint 72, DE): 0.3616 | UL84 (P16727) protein level (timepoint 72, DE): 0.08785 | UL95 (P16801) protein level (timepoint 72, DE): 0.157 | UL96 (P16787) protein level (timepoint 72, DE): 0.2632 | UL97 (P16788) protein level (timepoint 72, DE): 0.1687 | UL98 (P16789) protein level (timepoint 72, DE): 0.2967 | UL102 (P16827) protein level (timepoint 72, DE): 0.7626 | UL104 (P16735) protein level (timepoint 72, DE): 0.1005 | UL112/UL113 (P17151) protein level (timepoint 72, DE): 0.3808 | UL114 (P16769) protein level (timepoint 72, DE): 0.6517 | UL119/UL118 (P16739) protein level (timepoint 72, DE): 0.4195 | UL128 (P16837) protein level (timepoint 72, DE): 0.04728 | US8 (P09730) protein level (timepoint 72, DE): 0.5794 | US9 (P09729) protein level (timepoint 72, DE): 0.5649 | US12 (P09721) protein level (timepoint 72, DE): 0.4239 | US13 (P09720) protein level (timepoint 72, DE): 0.5351 | US14 (P09719) protein level (timepoint 72, DE): 0.1559 | US18 (P69334) protein level (timepoint 72, DE): 0.5415 | US22 (P09722) protein level (timepoint 72, DE): 0.4813 | US23 (P09701) protein level (timepoint 72, DE): 0.3933 | US24 (P09700) protein level (timepoint 72, DE): 0.3114 | US34 (P09709) protein level (timepoint 72, DE): 0.2066 | gB (P06473) protein level (timepoint 72, DE): 0.1022 | IRS1 (P09715) protein level (timepoint 72): 0.5625 | TRS1 (P09695) protein level (timepoint 72): 0.5284 | UL13 (P16755) protein level (timepoint 72): 0.3604 | UL36 (P16767) protein level (timepoint 72): 0.601 | UL37 (P16778) protein level (timepoint 72): 0.719 | UL122 (P19893) protein level (timepoint 72): 0.05427 | UL123 (P13202) protein level (timepoint 72): 0.4451 | CVC1 (P16799) protein level (timepoint 72, L): 0.09678
